Measurements reported in patent US20240034812A1, “BISPECIFIC ANTIBODY AGAINST CD3 AND CD20 IN COMBINATION THERAPY FOR TREATING DIFFUSE LARGE B-CELL LYMPHOMA” (GENMAB A/S, priority 2020, published 2024).
Where two headings read alike, the source gives them in different places.

What was measured:
T cells = test: T cell viability after pre-incubation with CHOP components; type: cell-based
[1] = system: previously untreated, high-risk (IPI or R-IPI≥3) DLBCL; test: Phase 1b open-label trial of epcoritamab in combination with R-CHOP; type: in vivo, human; conditions: as of Sep. 8, 2021; CRS under epcoritamab + R-CHOP
Procedure: Epcoritamab is initially be administered in combination with R-CHOP in a 3-subject cohort. DLTs are evaluated during the first 28 days.
Cyclophosphamide (750 mg/m^2) is administered intravenously on day 1 once every three weeks (Q3 W) of cycles 1-6 or 1-8. Doxorubicin (50 mg/m^2) is administered intravenously on day 1 once every three weeks (Q3 W) of cycles 1-6 or 1-8. Vincristine (1.4 mg/m^2, with a recommended cap of 2 mg) is administered intravenously on day 1 once every three weeks (Q3 W) of cycles 1-6 or 1-8. Prednisone (100 mg/day) is administered intravenously or orally on five consecutive days (days 1-5) every three weeks (Q3 W) of cycles 1-6 or 1-8.
MRD negativity rate, is defined as the proportion of subjects with at least 1 undetectable MRD result according to the specific threshold, prior to initiation of subsequent therapy.

CD20 = biological target: T1, CD20 (Homo sapiens, UniProt P11836); conditions: bind to a different epitope; cited from earlier work
T1 sequence (P11836 1-297): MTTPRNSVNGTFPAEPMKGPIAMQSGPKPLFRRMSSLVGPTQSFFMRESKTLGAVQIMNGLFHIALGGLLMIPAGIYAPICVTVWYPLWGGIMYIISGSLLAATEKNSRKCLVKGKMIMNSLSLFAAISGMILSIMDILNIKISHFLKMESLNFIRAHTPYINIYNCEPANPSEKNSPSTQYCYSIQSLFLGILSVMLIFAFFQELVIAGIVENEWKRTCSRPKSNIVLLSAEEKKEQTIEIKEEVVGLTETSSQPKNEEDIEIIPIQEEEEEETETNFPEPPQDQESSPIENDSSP

[2] = system: relapsed/refractory (R/R) B-NHL; test: epcoritamab monotherapy clinical trial (NCT03625037); type: in vivo
Text: Epcoritamab as monotherapy is currently in a clinical trial for the treatment of relapsed/refractory (R/R) B-NHL (ClinicalTrials.gov Identifier: NCT03625037).

[3] = system: CD20-expressing Raji-luc tumor cells; conditions: even in the presence of an excess of IgG1-RTX-FEAR; Engelberts et al. 2020; cited from earlier work
[4] = system: primary DLBCL and follicular lymphoma patient biopsies; conditions: cited from earlier work
[5] = T cells pre-incubated 16 hours, data not shown

In the case of `COc1cccc2c1C(=O)c1c(O)c3c(c(O)c1C2=O)C[C@@](O)(C(=O)CO)C[C@@H]3O[C@H]1C[C@H](N)[C@H](O)[C@H](C)O1` [doxorubicin], the “T cell viability after pretreatment” value (T cells; [5]) is reported as “led to a reduction in T cell viability”.
In the case of “tocilizumab: a humanized antibody against IL-6 receptor, commercially available as, e.g., ACTEMRA”, the “outcome of the Grade 3 CRS episode after treatment” value [1] is reported as “recovered”.
For “IgG1-CD20: anti-CD20 antibody of which the CD20 arm of epcoritamab is derived”, the “competition for CD20 binding” value (CD20) is listed as “compete for CD20 binding”.
For `O=P1(N(CCCl)CCCl)NCCCO1` (centres unmarked) [cyclophosphamide, 2H-1,3,2-Oxazaphosphorin-2-amine, N,N-bis(2-chloroethyl)tetrahydro-, 2-oxide], the “T cell viability after pretreatment” value (T cells) was “did not impact T cell viability”.
For “epcoritamab: IgG1 bispecific CD3xCD20 antibody; heavy and light chain pairs SEQ ID NOs: 24/25 (CD3ε arm) and 26/27 (CD20 arm); CAS 2134641-34-0”, the tolerated dose ([2]; human, in vivo) is given as “at least 48 mg”, the dose-limiting toxicities ([2]; monotherapy, R/R B-NHL patients, preliminary data) is given as “no dose-limiting toxicities reported” and the tumor growth [3] is given as “effectively reduce tumor growth”. For the same molecule, the T-cell-mediated cytotoxicity ([4]; biopsies taken a certain amount of time after anti-CD20 antibody, Van der Horst et al. 2019) was “induced T-cell-mediated cytotoxicity” and the tumor cell kill ([4]; biopsy taken 2 weeks after administering anti-CD20 antibody) was “up to 40%”.
For `C[C@]12C=CC(=O)C=C1CC[C@@H]1[C@@H]2C(=O)C[C@@]2(C)[C@H]1CC[C@]2(O)C(=O)CO` [prednisone, 17,21-dihydroxypregna-1,4-diene-3,11,20-trione], the “T cell viability after pretreatment” value (T cells; [5]) was “did not impact T cell viability”.
With `CC[C@]1(O)C[C@H]2CN(CCc3c([nH]c4ccccc34)[C@@](C(=O)OC)(c3cc4c(cc3OC)N(C=O)[C@H]3[C@@](O)(C(=O)OC)[C@H](OC(C)=O)[C@]5(CC)C=CCN6CC[C@]43[C@@H]65)C2)C1` [vincristine] the “T cell viability after pretreatment” value (T cells; [5]) was “did not impact T cell viability”.
